Consider 20 molecules from US11639350B2, “Heteroaryldihydropyrimidine derivatives and methods of treating hepatitis B infections” (Janssen Pharmaceutica NV, priority 2018, dated 2023).

For one data set, the system named is HBV. Nature of the data set: HBV inhibitory activity: HBV DNA in the culture medium of HepG2.2.15 cells by q-PCR. Type of data set: cell-based. The note with it: HepG2.2.15 cells, 6 days of compound treatment, HBV DNA in culture medium by q-PCR, highest concentration 10 μM; read-out: EC50. The method, boiled down: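 Supernatant HBV DNA quantified by q-PCR after a 6-day compound exposure, with one mid-course medium change, of HepG2.2.15 cells (stably integrated HBV; 40,000 per well, 2% FBS). Eight-point 3-fold series topped at 10 μM for antiviral EC50; separate plates of 5,000 cells per well with 100 μM top give CC50.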

A further data set relates to HepG2.2.15 cells. As to the kind of experiment: Cytotoxicity determination in HepG2.2.15 cells (CCK-8). It is filed as cell-based. The note with it: 6 days of compound treatment, CCK-8, highest concentration 100 μM. Put shortly: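 CC50 is from CCK-8 absorbance (450 nm, 630 nm reference) after 2.5 h with reagent. Before that, compounds were applied for six days, top concentration 100 μM, eight threefold dilutions, one mid-course medium change, to stably HBV-integrated HepG2.2.15 cells plated at 5,000/well in 2% FBS.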

Take `COC(=O)C1=C(C2CCC(NS(C)(=O)=O)C2)NC(c2nccs2)=NC1c1cccc(F)c1Cl` (single isomer, unassigned) [Compound 61B, Methyl 4-(2-chloro-3-fluorophenyl)-6-(3-(methylsulfonamido)-cyclopentyl)-2-(thiazol-2-yl)-1,4-dihydropyrimidine-5-carboxylate]: the EC50 in the data set on HBV was determined as 333 nM. Further, in the data set with HepG2.2.15 cells, the CC50 was above 20000 nM.

As to `COC(=O)C1=C(C2CCN(S(=O)(=O)C3CCC(C)(C(=O)O)CC3)CC2)NC(c2nccs2)=NC1c1ccc(F)c(F)c1Cl` (single isomer, unassigned) [Compound 210A, (trans)-4-((4-(6-(2-chloro-3,4-difluorophenyl)-5-(methoxycarbonyl)-2-(thiazol-2-yl)-3,6-dihydropyrimidin-4-yl)piperidin-1-yl)sulfonyl)-1-methylcyclohexanecarboxylic Acid], the half-maximal effective concentration (EC50) in the data set on HBV was determined as 24 nM. The molecule further displayed a CC50 with HepG2.2.15 cells of 6000 nM.

With `CCOC(=O)C1=C(C2CCN(S(=O)(=O)[C@H]3C[C@@](C)(C(=O)O)C3)CC2)NC(c2nccs2)=NC1c1ccc(F)cc1Cl` (stereo partly drawn) [Compound 272B, (cis)-3-((4-(6-(2-Chloro-4-fluorophenyl)-5-(ethoxycarbonyl)-2-(thiazol-2-yl)-3,6-dihydropyrimidin-4-yl)piperidin-1-yl)sulfonyl)-1-methylcyclobutanecarboxylic Acid], in the data set on HBV, the concentration giving a half-maximal response (EC50) is 47 nM. Moreover, the CC50 with HepG2.2.15 cells was 20100 nM.

Regarding `COC(=O)C1=C(C2CCOC2)NC(c2nccs2)=NC1c1cccc(F)c1Cl` (single isomer, unassigned) [Compound 74D, Methyl 4-(2-chloro-3-fluorophenyl)-6-(tetrahydrofuran-3-yl)-2-(thiazol-2-yl)-1,4-dihydropyrimidine-5-carboxylate], the EC50 in the data set on HBV is 303 nM. The same molecule showed a CC50 with HepG2.2.15 cells of 84500 nM.

Consider `COC(=O)C1=C(C2CCN(S(=O)(=O)C3CCC(C)(C(=O)O)CC3)CC2)NC(c2nccs2)=NC1c1ccc(F)c(F)c1Cl` (single isomer, unassigned) [Compound 210B, (cis)-4-((4-(6-(2-chloro-3,4-difluorophenyl)-5-(methoxycarbonyl)-2-(thiazol-2-yl)-3,6-dihydropyrimidin-4-yl)piperidin-1-yl)sulfonyl)-1-methylcyclohexanecarboxylic Acid], for which, in the data set with HBV, the EC50 came to 44 nM. Besides, the CC50 in the data set with HepG2.2.15 cells worked out at 9700 nM.

Regarding `COC(=O)C1=C(C2CCN(S(=O)(=O)CC3(C)CCC(C(=O)O)CC3)CC2)NC(c2nccs2)=NC1c1ccc(F)cc1Cl` (single isomer, unassigned) [Compound 450A, (cis)-4-(((4-(6-(2-Chloro-4-fluorophenyl)-5-(methoxycarbonyl)-2-(thiazol-2-yl)-3,6-dihydropyrimidin-4-yl)piperidin-1-yl)sulfonyl)methyl)-4-methylcyclohexanecarboxylic Acid], the 50% effective concentration (EC50) with HBV was 17 nM. In the data set on HepG2.2.15 cells, this molecule yielded a CC50 of 12800 nM.

As for `COC(=O)C1=C(C2CCN(S(=O)(=O)C3CC(C)(C(=O)OC)C3)CC2)NC(c2nccs2)=NC1c1ccc(F)c(F)c1Cl` (single isomer, unassigned) [Compound 323C, trans-methyl 4-(2-chloro-3,4-difluorophenyl)-6-(1-((3-(methoxycarbonyl)-3-methylcyclobutyl)sulfonyl)piperidin-4-yl)-2-(thiazol-2-yl)-1,4-dihydropyrimidine-5-carboxylate], the half-maximal effective concentration (EC50) in the data set on HBV worked out at 10 nM. Also, the 50% cytotoxic concentration (CC50) in the data set with HepG2.2.15 cells came out at 24100 nM.

Take `CCOC(=O)C1=C(C2CCN(S(=O)(=O)C3CC(C)(C(=O)O)C3)CC2)NC(c2nccs2)=NC1c1cccc(F)c1Cl` (single isomer, unassigned) [Compound 321B, (cis)-3-((4-(6-(2-Chloro-3-fluorophenyl)-5-(ethoxycarbonyl)-2-(thiazol-2-yl)-3,6-dihydropyrimidin-4-yl)piperidin-1-yl)sulfonyl)-1-methylcyclobutanecarboxylic Acid]: in the data set on HBV, the half-maximal effective concentration (EC50) was 60 nM. Further, the midpoint of cytotoxicity in the data set with HepG2.2.15 cells, the CC50, lay at 15800 nM.

With `COC(=O)C1=C(C2CCN(S(=O)(=O)C3CC(C)(C(=O)O)C3)CC2)NC(c2nccs2)=NC1c1ccc(F)cc1Cl` (stereo not drawn) [Compound 142, (cis)-3-((4-(6-(2-chloro-4-fluorophenyl)-5-(methoxycarbonyl)-2-(thiazol-2-yl)-3,6-dihydropyrimidin-4-yl)piperidin-1-yl)sulfonyl)-1-methylcyclobutane-1-carboxylic Acid], in the data set on HBV, the half-maximal effective concentration (EC50) is 89 nM. The same molecule displayed a half-maximal cytotoxic concentration (CC50) in the data set on HepG2.2.15 cells of 37600 nM.

Regarding `COC(=O)C1=C(C2CCN(S(=O)(=O)CC(O)CO)CC2)NC(c2nccs2)=NC1c1ccc(F)cc1Cl` (single isomer, unassigned) [Compound 305B, Methyl 4-(2-chloro-4-fluorophenyl)-6-(1-((2,3-dihydroxypropyl)sulfonyl)piperidin-4-yl)-2-(thiazol-2-yl)-1,4-dihydropyrimidine-5-carboxylate], the EC50 in the data set with HBV amounted to 25 nM. The molecule also gave a cytotoxic concentration (CC50) in the data set on HepG2.2.15 cells of 34500 nM.

As to `COC(=O)C1=C(C2CCCN(S(C)(=O)=O)CC2)NC(c2nccs2)=NC1c1ccc(F)cc1Cl` (single isomer, unassigned) [Compound 383D, Methyl 4-(2-chloro-4-fluorophenyl)-6-(1-(methylsulfonyl)azepan-4-yl)-2-(thiazol-2-yl)-1,4-dihydropyrimidine-5-carboxylate], the EC50 in the data set on HBV came out at 148 nM. In addition, it took 31500 nM to reach half-maximal cytotoxicity with HepG2.2.15 cells (CC50).

For the molecule `COC(=O)C1=C([C@H]2CC[C@H](NS(C)(=N)=O)CC2)NC(c2nccs2)=NC1c1ccc(F)cc1Cl` (single isomer, unassigned) [Compound 287D, Methyl 4-(2-chloro-4-fluorophenyl)-6-((trans)-4-(methylsulfonoimidamido)cyclohexyl)-2-(thiazol-2-yl)-1,4-dihydropyrimidine-5-carboxylate], the EC50 in the data set on HBV worked out at 67 nM. Also, in the data set on HepG2.2.15 cells, the CC50 was 60000 nM.

Take `COC(=O)C1=C(C2CCN(S(C)(=N)=O)CC2)NC(c2nccs2)=NC1c1ccc(F)c(F)c1Cl` (stereo not shown) [Compound 205B, methyl 4-(2-chloro-3,4-difluorophenyl)-6-(1-(S-methylsulfonimidoyl)piperidin-4-yl)-2-(thiazol-2-yl)-1,4-dihydropyrimidine-5-carboxylate]: the EC50 in the data set with HBV is 189 nM. For the same molecule, the CC50 in the data set with HepG2.2.15 cells stood at 40500 nM.

As for `COC(=O)C1=C(C2COC(CO)C2)NC(c2nccs2)=NC1c1cccc(F)c1Cl` (single isomer, unassigned) [Compound 219A, Methyl 4-(2-chloro-3-fluorophenyl)-6-(5-(hydroxymethyl)-tetrahydrofuran-3-yl)-2-(thiazol-2-yl)-1,4-dihydropyrimidine-5-carboxylate], the EC50 in the data set with HBV was found to be 192 nM. Also, the CC50 in the data set with HepG2.2.15 cells came to 35300 nM.

As for `COC(=O)C1=C(C2CCN(S(=O)(=O)CC3(C)CCC(C(=O)O)CC3)CC2)NC(c2nccs2)=NC1c1ccc(F)c(F)c1Cl` (single isomer, unassigned) [Compound 452B, (trans)-4-(((4-(6-(2-Chloro-3,4-difluorophenyl)-5-(methoxycarbonyl)-2-(thiazol-2-yl)-3,6-dihydropyrimidin-4-yl)piperidin-1-yl)sulfonyl)methyl)-4-methylcyclohexanecarboxylic Acid], in the data set on HBV, the half-maximal effective concentration (EC50) amounted to 5 nM. The molecule also gave a CC50 in the data set with HepG2.2.15 cells of 7700 nM.

For the molecule `COC(=O)C1=C(C2CCN(S(=O)(=O)CC3(C)CCC(C(=O)O)CC3)CC2)NC(c2nccs2)=NC1c1ccc(F)cc1Cl` (single isomer, unassigned) [Compound 450B, (trans)-4-(((4-(6-(2-Chloro-4-fluorophenyl)-5-(methoxycarbonyl)-2-(thiazol-2-yl)-3,6-dihydropyrimidin-4-yl)piperidin-1-yl)sulfonyl)methyl)-4-methylcyclohexanecarboxylic Acid], in the data set on HBV, the EC50 was determined as 7 nM. The molecule also returned a 50% cytotoxic concentration (CC50) with HepG2.2.15 cells of 14000 nM.

Consider `CCOC(=O)C1=C([C@H]2CC[C@H](C(=O)O)CO2)NC(c2nccs2)=NC1c1ccc(F)cc1Cl` (single isomer, unassigned) [Compound 363H, (trans)-6-(6-(2-Chloro-4-fluorophenyl)-5-(ethoxycarbonyl)-2-(thiazol-2-yl)-3,6-dihydropyrimidin-4-yl)tetrahydro-2H-pyran-3-carboxylic Acid], for which, in the data set with HBV, the concentration giving a half-maximal response (EC50) was 650 nM. The same molecule showed a CC50 in the data set with HepG2.2.15 cells above 100000 nM.

Turning to `COC(=O)C1=C(C2CCC(NS(C)(=O)=O)C2)NC(c2nccs2)=NC1c1cccc(F)c1Cl` (single isomer, unassigned) [Compound 61G, Methyl 4-(2-chloro-3-fluorophenyl)-6-(3-(methylsulfonamido)-cyclopentyl)-2-(thiazol-2-yl)-1,4-dihydropyrimidine-5-carboxylate], in the data set with HBV, the EC50 is 423 nM. The molecule further had a 50% cytotoxic concentration (CC50) in the data set with HepG2.2.15 cells above 10000 nM.

As to `CCOC(=O)C1=C([C@@H]2C[C@H]2CC(=O)O)NC(c2nccs2)=NC1c1ccc(F)cc1Cl` (single isomer, unassigned) [Compound 93, 2-(trans-2-(6-(2-Chloro-4-fluorophenyl)-5-(ethoxycarbonyl)-2-(thiazol-2-yl)-3,6-dihydropyrimidin-4-yl)cyclopropyl)acetic Acid], in the data set on HBV, the EC50 was 507 nM. The molecule further had a cytotoxic concentration (CC50) in the data set on HepG2.2.15 cells of 92500 nM.

Take `COC(=O)C1=C(C2CCCN(S(C)(=O)=O)C2)NC(c2nccs2)=NC1c1ccc(F)cc1Cl` (single isomer, unassigned) [Compound 33A, Methyl 4-(2-chloro-4-fluorophenyl)-6-(1-(methylsulfonyl)piperidin-3-yl)-2-(thiazol-2-yl)-1,4-dihydropyrimidine-5-carboxylate]: the EC50 with HBV amounted to 190 nM. In the data set with HepG2.2.15 cells, half-maximal cytotoxicity (CC50) was put at 78100 nM.

By EC50 is commonly meant the concentration giving half of the maximal effect. In general, CC50 refers to the concentration giving 50% cytotoxicity. High values mean lower toxicity to the cells, low ones greater toxicity to the cells.
